Assay results: US8952024B2, “Herbicidal pyrimidone derivatives” (E I du Pont de Nemours and Company, priority 2009, dated 2015)

Key:
Assay type in all cases: in vivo
[1] = test system: windgrass (Apera spica-venti); experiment: Test B postemergence plant response
Summary of the method: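 Plants at the 1- to 4-leaf stage (2 to 18 cm tall), grown in pots of peat moss/vermiculite medium with wetting agent and starter nutrients, received postemergence applications of test chemicals. After 13 to 15 days in a greenhouse, injury was rated visually against untreated controls on a 0 (no effect) to 100 (complete control) scale.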

[2] = test system: pigweed (Amaranthus retroflexus); experiment: Test A pre-/postemergence plant response
Summary of the method: (§1)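 Both pre- and postemergence treatments are applied simultaneously, using chemicals formulated in a non-phytotoxic solvent mixture with surfactant. Postemergence plants are 2–10 cm high with one to two leaves. After approximately ten days in a greenhouse, injury is scored visually from 0 (none) to 100 (complete control) relative to untreated plants.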

[3] = test system: wheat (Triticum aestivum); experiment: Test A pre-/postemergence plant response
Summary of the method: as §1

[4] = test system: morningglory (Ipomoea spp.); experiment: Test A pre-/postemergence plant response
Summary of the method: as §1

corn (Zea mays) = experiment: Test A pre-/postemergence plant response
Summary of the method: as §1

[5] = test system: velvetleaf (Abutilon theophrasti); experiment: Test A pre-/postemergence plant response
Summary of the method: as §1

[6] = test system: barnyardgrass (Echinochloa crus-galli); experiment: Test A pre-/postemergence plant response
Summary of the method: as §1

[7] = test system: giant foxtail (Setaria faberii); experiment: Test A pre-/postemergence plant response
Summary of the method: as §1

[8] = test system: large crabgrass (Digitaria sanguinalis); experiment: Test A pre-/postemergence plant response
Summary of the method: as §1

[9] = test system: umbrella sedge (Cyperus difformis); experiment: Test B flooded paddy test; settings: for Plant response rating, Flood, Sedge, Umbrella: 250 g ai/ha, flooded paddy test, visual rating on 0 to 100 scale (0 no effect, 100 complete control) after 13 to 15 days; for Plant response rating, Sedge, Umbrella: Flood (flooded paddy test), 13 to 15 days
Summary of the method: (§2)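 Greenhouse-held for 13 to 15 days, treated pots were compared visually with controls and scored 0–100 (0, no effect). Treatment had been made into paddy water kept at 3 cm above the soil, with plants at the 2-leaf stage.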

rice (Oryza sativa) = experiment: Test B flooded paddy test; settings: for Plant response rating, Flood, Rice: 250 g ai/ha, flooded paddy test, visual rating on 0 to 100 scale (0 no effect, 100 complete control) after 13 to 15 days; for Plant response rating, Rice: Flood (flooded paddy test), 13 to 15 days
Summary of the method: as §2

[10] = test system: barnyardgrass (Echinochloa crus-galli); experiment: Test B flooded paddy test; settings: for Plant response rating, Flood, Barnyardgrass: 250 g ai/ha, flooded paddy test, visual rating on 0 to 100 scale (0 no effect, 100 complete control) after 13 to 15 days; for Plant response rating, Barnyardgrass: Flood (flooded paddy test), 13 to 15 days
Summary of the method: as §2

[11] = test system: ducksalad (Heteranthera limosa); experiment: Test B flooded paddy test; settings: for Plant response rating, Flood, Ducksalad: 250 g ai/ha, flooded paddy test, visual rating on 0 to 100 scale (0 no effect, 100 complete control) after 13 to 15 days; for Plant response rating, Ducksalad: Flood (flooded paddy test), 13 to 15 days
Summary of the method: as §2

[12] = 31 g ai/ha, postemergence, scale 0 to 100, 0 is no effect, 100 is complete control
[13] = Postemergence, 62 g ai/ha, scale 0 (no effect) to 100 (complete control), 13 to 15 days
[14] = Postemergence, 125 g ai/ha, visual rating after 13 to 15 days, scale 0 (no effect) to 100 (complete control)
[15] = Postemergence, 125 g ai/ha, visual injury, 0 to 100 scale (0 no effect, 100 complete control), approx. ten days
[16] = Postemergence, 500 g ai/ha, 0 to 100 scale, 0 = no effect, 100 = complete control, approx. ten days
[17] = Preemergence, 125 g ai/ha, 0 to 100 scale, 0 = no effect, 100 = complete control
[18] = Preemergence, 500 g ai/ha, visual injury, 0 to 100 scale (0 no effect, 100 complete control), approx. ten days
[19] = 31 g ai/ha, scale of 0 to 100 where 0 is no effect and 100 is complete control
[20] = 62 g ai/ha, scale of 0 to 100 where 0 is no effect and 100 is complete control
[21] = 125 g ai/ha, scale 0 to 100, 0 is no effect, 100 is complete control

In the case of `CCn1c(-c2ccccc2)ncc(C(=O)C2=C(O)CCCC2=O)c1=O` [Compound 49], the “Plant response rating, Windgrass” value [1, 12] is reported as 0, the “Plant response rating, Windgrass” value [1, 13] is reported as 0 and the “Plant response rating, Windgrass” value [1, 14] is reported as 5. The “Pigweed plant response rating” value [2, 15] was 100, the “Plant response rating, Pigweed” value [2, 16] was 100 and the “Plant response rating, Pigweed” value [2, 17] was 80. For the same molecule, the “Plant response rating, Pigweed” value [2, 18] was 90, the “Wheat plant response rating” value [3, 15] was 0 and the “Plant response rating, Wheat” value [3, 16] was 0. The “Plant response rating, Wheat” value [3, 17] was 0, the “Plant response rating, Wheat” value [3, 18] was 0 and the “Morningglory plant response rating” value [4, 15] was 100. The “Plant response rating, Morningglory” value [4, 16] was 100, the “Plant response rating, Morningglory” value [4, 17] was 30 and the “Plant response rating, Morningglory” value [4, 18] was 80. The “Corn plant response rating” value (corn (Zea mays); [15]) was 0, the “Plant response rating, Corn” value (corn (Zea mays); [16]) was 20 and the “Plant response rating, Corn” value (corn (Zea mays); [17]) was 0. The “Plant response rating, Corn” value (corn (Zea mays); [18]) was 0, the “Velvetleaf plant response rating” value [5, 15] was 100 and the “Plant response rating, Velvetleaf” value [5, 16] was 100. The “Plant response rating, Velvetleaf” value [5, 17] was 80, the “Plant response rating, Velvetleaf” value [5, 18] was 90 and the “Barnyardgrass plant response rating” value [6, 15] was 60. For the same molecule, the “Plant response rating, Barnyardgrass” value [6, 16] was 90, the “Plant response rating, Barnyardgrass” value [6, 17] was 20 and the “Plant response rating, Barnyardgrass” value [6, 18] was 60. The “Foxtail, Giant plant response rating” value [7, 15] was 50, the “Plant response rating, Foxtail, Giant” value [7, 16] was 80 and the “Plant response rating, Foxtail, Giant” value [7, 17] was 20. For the same molecule, the “Plant response rating, Foxtail, Giant” value [7, 18] was 50, the “Crabgrass, Large plant response rating” value [8, 15] was 90 and the “Plant response rating, Crabgrass, Large” value [8, 16] was 90. The “Plant response rating, Crabgrass, Large” value [8, 17] was 60, the “Plant response rating, Crabgrass, Large” value [8, 18] was 90 and the “Plant response rating, Flood, Sedge, Umbrella” value [9] was 85. The “Plant response rating, Sedge, Umbrella” value [9, 19] was 0, the “Plant response rating, Sedge, Umbrella” value [9, 20] was 0 and the “Plant response rating, Sedge, Umbrella” value [9, 21] was 0. For the same molecule, the “Plant response rating, Flood, Rice” value (rice (Oryza sativa)) was 15, the “Plant response rating, Rice” value (rice (Oryza sativa); [19]) was 0 and the “Plant response rating, Rice” value (rice (Oryza sativa); [20]) was 0. For the same molecule, the “Plant response rating, Rice” value (rice (Oryza sativa); [21]) was 10, the “Plant response rating, Flood, Barnyardgrass” value [10] was 0 and the “Plant response rating, Barnyardgrass” value [10, 19] was 0. For the same molecule, the “Plant response rating, Barnyardgrass” value [10, 20] was 0, the “Plant response rating, Barnyardgrass” value [10, 21] was 0 and the “Plant response rating, Flood, Ducksalad” value [11] was 70. For the same molecule, the “Plant response rating, Ducksalad” value [11, 19] was 0, the “Plant response rating, Ducksalad” value [11, 20] was 0 and the “Plant response rating, Ducksalad” value [11, 21] was 40.

In the case of `CCCn1c(-c2ccccc2)ncc(C(=O)C2=C(O)CCCC2=O)c1=O` [Compound 50], the “Plant response rating, Windgrass” value [1, 12] is reported as 10, the “Plant response rating, Windgrass” value [1, 13] is reported as 50 and the “Plant response rating, Windgrass” value [1, 14] is reported as 60. The “Plant response rating, Windgrass” value ([1]; Postemergence, 250 g ai/ha, scale 0 to 100 (0 no effect, 100 complete control)) was 80, the “Pigweed plant response rating” value [2, 15] was 100 and the “Plant response rating, Pigweed” value [2, 16] was 100. For the same molecule, the “Plant response rating, Pigweed” value [2, 17] was 90, the “Plant response rating, Pigweed” value [2, 18] was 100 and the “Wheat plant response rating” value [3, 15] was 0. The “Plant response rating, Wheat” value [3, 16] was 0, the “Plant response rating, Wheat” value [3, 17] was 0 and the “Plant response rating, Wheat” value [3, 18] was 0. The “Morningglory plant response rating” value [4, 15] was 80, the “Plant response rating, Morningglory” value [4, 16] was 80 and the “Plant response rating, Morningglory” value [4, 17] was 40. The “Plant response rating, Morningglory” value [4, 18] was 80, the “Corn plant response rating” value (corn (Zea mays); [15]) was 0 and the “Plant response rating, Corn” value (corn (Zea mays); [16]) was 30. The “Plant response rating, Corn” value (corn (Zea mays); [17]) was 0, the “Plant response rating, Corn” value (corn (Zea mays); [18]) was 0 and the “Velvetleaf plant response rating” value [5, 15] was 100. The “Plant response rating, Velvetleaf” value [5, 16] was 100, the “Plant response rating, Velvetleaf” value [5, 17] was 80 and the “Plant response rating, Velvetleaf” value [5, 18] was 90. The “Barnyardgrass plant response rating” value [6, 15] was 90, the “Plant response rating, Barnyardgrass” value [6, 16] was 100 and the “Plant response rating, Barnyardgrass” value [6, 17] was 50. For the same molecule, the “Plant response rating, Barnyardgrass” value [6, 18] was 90, the “Foxtail, Giant plant response rating” value [7, 15] was 90 and the “Plant response rating, Foxtail, Giant” value [7, 16] was 90. The “Plant response rating, Foxtail, Giant” value [7, 17] was 50, the “Plant response rating, Foxtail, Giant” value [7, 18] was 80 and the “Crabgrass, Large plant response rating” value [8, 15] was 90. The “Plant response rating, Crabgrass, Large” value [8, 16] was 90, the “Plant response rating, Crabgrass, Large” value [8, 17] was 90 and the “Plant response rating, Crabgrass, Large” value [8, 18] was 100. For the same molecule, the “Plant response rating, Flood, Sedge, Umbrella” value [9] was 95, the “Plant response rating, Sedge, Umbrella” value [9, 19] was 75 and the “Plant response rating, Sedge, Umbrella” value [9, 20] was 75. For the same molecule, the “Plant response rating, Sedge, Umbrella” value [9, 21] was 85, the “Plant response rating, Flood, Rice” value (rice (Oryza sativa)) was 20 and the “Plant response rating, Rice” value (rice (Oryza sativa); [19]) was 0. For the same molecule, the “Plant response rating, Rice” value (rice (Oryza sativa); [20]) was 10, the “Plant response rating, Rice” value (rice (Oryza sativa); [21]) was 15 and the “Plant response rating, Flood, Barnyardgrass” value [10] was 60. The “Plant response rating, Barnyardgrass” value [10, 19] was 0, the “Plant response rating, Barnyardgrass” value [10, 20] was 0 and the “Plant response rating, Barnyardgrass” value [10, 21] was 35. The “Plant response rating, Flood, Ducksalad” value [11] was 85, the “Plant response rating, Ducksalad” value [11, 19] was 70 and the “Plant response rating, Ducksalad” value [11, 20] was 75. The “Plant response rating, Ducksalad” value [11, 21] was 85.
